Assay results published in PubChem BioAssay AID256 (DTP/NCI, 2004).
Where “and” joins values, the source holds several entries; their conditions need not be identical. Identical values can stand only once. Toxic doses and inconclusive results are not listed. The calls were made as follows: active = survival T/C of 150% or more; inactive = T/C below 125% in these data.

Test system: CD2F1 mice, L1210 leukemia ip, survival T/C
Assay: NCI In Vivo Anticancer Drug Screen. Data for tumor model L1210 Leukemia (intraperitoneal) in CD2F1 (CDF1) mice
Details: endpoint: mean survival time, higher = longer survival
Procedure, shortened: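 Antitumor effect is scored in animals hosting a serially transplanted tumor. Values compare compound-dosed animals against vehicle-only controls as a simple quotient.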

[1] = dose: 100.0 mg/kg/injection, schedule: Q04DX003 (ip), vehicle: saline with Tween-80
[2] = dose: 200.0 mg/kg/injection, schedule: Q04DX003 (ip), vehicle: saline with Tween-80
[3] = dose: 400.0 mg/kg/injection, schedule: Q04DX003 (ip), vehicle: saline with Tween-80
[4] = dose: 100.0 mg/kg/injection, schedule: Q01DX009 (ip), vehicle: saline with Tween-80
[5] = dose: 100.0 mg/kg/injection, schedule: Q04DX002 (ip), vehicle: saline with Tween-80
[6] = dose: 200.0 mg/kg/injection, schedule: Q01DX009 (ip), vehicle: saline with Tween-80
[7] = dose: 200.0 mg/kg/injection, schedule: Q04DX002 (ip), vehicle: saline with Tween-80
[8] = dose: 400.0 mg/kg/injection, schedule: Q01DX009 (ip), vehicle: saline with Tween-80
[9] = dose: 400.0 mg/kg/injection, schedule: Q04DX002 (ip), vehicle: saline with Tween-80
[10] = dose: 100.0 mg/kg/injection, schedule: Q01DX001 (ip), vehicle: saline with Tween-80
[11] = dose: 200.0 mg/kg/injection, schedule: Q01DX001 (ip), vehicle: saline with Tween-80
[12] = dose: 400.0 mg/kg/injection, schedule: Q01DX001 (ip), vehicle: saline with Tween-80

Measured: T/C

O=C1CSC(=S)N1/N=C/c1ccc2c(c1)OCO2
inactive: dose: 75.0 mg/kg/injection, schedule: Q01DX001 (ip), vehicle: other 94 % of control | dose: 150.0 mg/kg/injection, schedule: Q01DX001 (ip), vehicle: other 93 % of control | dose: 300.0 mg/kg/injection, schedule: Q01DX001 (ip), vehicle: other 97 % of control

O=[N+]([O-])c1ccc(N=Nc2ccccc2)cc1
inactive: [1] 90 % of control | [2] 92 % of control | [3] 92 % of control

Nc1ncnc2c1ncn2C1OC(COP(N)(N)=O)C(O)C1O (stereo not given)
inactive: dose: 12.5 mg/kg/injection, schedule: Q01DX005 (ip), vehicle: distilled water + Tween-80 105 % of control | dose: 25.0 mg/kg/injection, schedule: Q01DX005 (ip), vehicle: distilled water + Tween-80 98 % of control | dose: 50.0 mg/kg/injection, schedule: Q01DX005 (ip), vehicle: distilled water + Tween-80 96 % of control | dose: 100.0 mg/kg/injection, schedule: Q01DX005 (ip), vehicle: distilled water + Tween-80 102 % of control | dose: 200.0 mg/kg/injection, schedule: Q01DX005 (ip), vehicle: distilled water + Tween-80 96 % of control

O=C(COc1ccccc1)NC(=S)Nc1ccc([N+](=O)[O-])cc1Cl
inactive: [4] 88 % of control and 89 % of control | [5] 95 % of control | [6] 93 % of control and 94 % of control | [7] 87 % of control | [8] 92 % of control and 93 % of control | [9] 91 % of control

COc1cc(C=Nc2cccc3ccccc23)cc(OC)c1OC
inactive: [10] 98 % of control | [4] 88 % of control and 93 % of control | [5] 89 % of control and 100 % of control | [1] 103 % of control | [11] 95 % of control | [6] 91 % of control and 96 % of control | [7] 89 % of control and 96 % of control | [2] 96 % of control | [12] 88 % of control | [8] 92 % of control and 95 % of control | [9] 96 % of control and 100 % of control | [3] 92 % of control

S=c1nc[nH]c2ccccc12
inactive: [10] 93 % of control | [5] 91 % of control and 105 % of control | [1] 95 % of control and 97 % of control | [11] 94 % of control | [7] 94 % of control and 102 % of control | [2] 86 % of control and 90 % of control | [12] 88 % of control | [9] 91 % of control and 98 % of control

CC(C)C1(C)NC(=O)NC1=O (stereo not given)
inactive: dose: 100.0 mg/kg/injection, schedule: Q01DX009 (ip), vehicle: saline 105 % of control | dose: 200.0 mg/kg/injection, schedule: Q01DX009 (ip), vehicle: saline 94 % of control | dose: 400.0 mg/kg/injection, schedule: Q01DX009 (ip), vehicle: saline 98 % of control
